Assay results: paper PMC11098465, “A comparative analysis of peptide-delivered antisense antibiotics using diverse nucleotide mimics” (RNA, 2024)

Test system: Salmonella outer membrane
Assay: Outer membrane permeabilization (NPN fluorescence)
Assay type: cell-based, Salmonella enterica serovar Typhimurium strain SL1344
Conditions: KFF-ASOs 10 µM, CTAB 10 µM, PMXB 0.4 µM; added after 14 min
Text: Because the negASOs are ineffective in bacterial cells despite their activity in cell-free systems, we investigated if these ASOs affected the ability of the KFF carrier peptide to induce OM permeabilization. Therefore, we used the hydrophobic fluorophore N-phenylnaphthylamine (NPN), a dye that turns fluorescent after binding to hydrophobic regions within cell membranes. This only occurs in cells with a compromised OM ([Ghosh et al. 2016]; [Ellis et al. 2019]). […] However, when conjugated to negASOs, the KFF carrier is unable to permeabilize the OM (Fig. 10). This could potentially be due to electrostatic interactions between the negASOs and the positively charged KFF.
The experiments were performed by modifying previously published protocols ([Ghosh et al. 2016]; [Ellis et al. 2019]; [Zheng et al. 2021]). Salmonella (WT SL1344, JVS-1574) were grown overnight in 4 mL MHB medium at 37°C (with shaking at 220 rpm). Then the culture was diluted 1:100 and grown until OD600 0.5 (∼2 × 10^8 cfu/mL). This culture was harvested and washed two times with 5 mM HEPES and further diluted to OD600 0.2 in 5 mM HEPES supplemented with 5 mM Glucose (pH 7.2). These cells were then incubated with NPN (Sigma) at a final concentration of 10 µM. One hundred and ninety microliters of NPN-treated cells were transferred into 96-well back plates with transparent bottoms and fluorescence (excitation = 350 nm, emission = 420 nm) was recorded for 60 min (reading was performed every minute) using a Synergy H1 plate reader (Biotek). On the 14th minute, 10 µL of the test compounds (10 µM final concentration) was added into the wells. CTAB (Sigma) 10 µM (final concentration) or PMXB (Sigma) (final concentration of 0.4 µM) were used as positive controls, while water was used as negative control. The fluorescence of the wells was monitored using the same settings as above. The plots were created using OrginPro 2023. The experiment was performed twice and Figure 10 is a representative example of two independent experiments.

Compound	Outer membrane permeabilization, NPN fluorescence (in words)
CCCCCCCCCCCCCCCC[N+](C)(C)C.[Br-] [CTAB, reference compound]	cause a rapid increase in fluorescence
Polymyxin B [reference compound]	cause a rapid increase in fluorescence
